Assay results published in patent US6030942A, “Peptides peptide analogs peptidomimetics and other small molecules useful for inhibiting the activity of ribonucleotide reductase” (The Trustees of the University of Pennsylvania, priority 1998, dated 2000).
Several values for one entry are separate records, joined by “and”; a condition that tells them apart may be missing. Identical values can stand only once. Ends that are not written are not given here.

Experiments:
[1] = target: T1, mammalian ribonucleotide reductase (Bos taurus, UniProt Q32LP1); experiment: Peptide inhibition of mammalian ribonucleotide reductase activity; format: biochemical; settings: Table 8; for % RI (relative inhibitory potency, (IC50 AcFTLDADF)/(IC50 peptide analog)): mean and average deviation of 2-3 determinations, others single; for IC50: Dixon plots of 4-6 concentration points, ranges are two independent determinations, read-out: IC50
T1 sequence (Q32LP1 1-791): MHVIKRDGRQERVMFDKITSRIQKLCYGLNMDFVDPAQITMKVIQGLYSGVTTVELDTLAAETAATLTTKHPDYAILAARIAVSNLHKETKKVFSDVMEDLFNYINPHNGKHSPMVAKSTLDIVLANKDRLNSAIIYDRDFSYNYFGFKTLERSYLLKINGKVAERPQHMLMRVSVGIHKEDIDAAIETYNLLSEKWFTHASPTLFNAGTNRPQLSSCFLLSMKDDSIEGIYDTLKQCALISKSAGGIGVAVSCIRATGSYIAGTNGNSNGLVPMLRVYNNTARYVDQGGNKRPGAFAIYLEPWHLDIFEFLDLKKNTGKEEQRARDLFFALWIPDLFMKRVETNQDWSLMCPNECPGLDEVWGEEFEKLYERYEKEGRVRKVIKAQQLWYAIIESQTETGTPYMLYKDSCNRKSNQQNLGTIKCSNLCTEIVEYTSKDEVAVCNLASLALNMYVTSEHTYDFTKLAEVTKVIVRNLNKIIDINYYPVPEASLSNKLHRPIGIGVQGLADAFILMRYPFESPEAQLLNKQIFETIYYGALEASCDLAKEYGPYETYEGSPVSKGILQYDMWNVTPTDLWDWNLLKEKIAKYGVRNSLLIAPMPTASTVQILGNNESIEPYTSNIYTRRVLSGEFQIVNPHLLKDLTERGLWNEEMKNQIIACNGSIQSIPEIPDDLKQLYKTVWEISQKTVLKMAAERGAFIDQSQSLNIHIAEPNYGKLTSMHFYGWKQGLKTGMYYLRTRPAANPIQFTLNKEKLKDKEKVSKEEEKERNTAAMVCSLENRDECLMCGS
Text: Standard assays of RR activity used in the studies presented herein involve the conversion of [^3 H]-ribonucleoside diphosphate (NDP) to [^3 H]-deoxyribonucleoside diphosphate (dNDP), using dithiothreitol as the external reductant.
All three methods yielded acceptable results, with the following limitations. Method 1 is useful for the assay of CDP to dCDP and ADP to dADP conversions, but is not useful for the assay of GDP reduction. It is also sensitive to large changes in the nucleotide composition of the assay medium. […] Method 2 is the easiest to perform on purified enzymes, and can be used with all four NDPs as substrates, but is difficult to use with crude enzyme, largely because contaminating phosphatase activities can skew results. Method 3 is usable with all four NDPs, but is also somewhat sensitive to large changes in the nucleotide composition of the assay medium and requires column separation at 4° C.

[2] = target: T2, mouse Y177F-R2 with recombinant mouse R1 (Mus musculus, UniProt P07742+P11157, Y177F); experiment: Inhibition of Y177F-R2-dependent RR activity; settings: dATP in presence of relatively high ATP
T2 sequence (P07742 1-792): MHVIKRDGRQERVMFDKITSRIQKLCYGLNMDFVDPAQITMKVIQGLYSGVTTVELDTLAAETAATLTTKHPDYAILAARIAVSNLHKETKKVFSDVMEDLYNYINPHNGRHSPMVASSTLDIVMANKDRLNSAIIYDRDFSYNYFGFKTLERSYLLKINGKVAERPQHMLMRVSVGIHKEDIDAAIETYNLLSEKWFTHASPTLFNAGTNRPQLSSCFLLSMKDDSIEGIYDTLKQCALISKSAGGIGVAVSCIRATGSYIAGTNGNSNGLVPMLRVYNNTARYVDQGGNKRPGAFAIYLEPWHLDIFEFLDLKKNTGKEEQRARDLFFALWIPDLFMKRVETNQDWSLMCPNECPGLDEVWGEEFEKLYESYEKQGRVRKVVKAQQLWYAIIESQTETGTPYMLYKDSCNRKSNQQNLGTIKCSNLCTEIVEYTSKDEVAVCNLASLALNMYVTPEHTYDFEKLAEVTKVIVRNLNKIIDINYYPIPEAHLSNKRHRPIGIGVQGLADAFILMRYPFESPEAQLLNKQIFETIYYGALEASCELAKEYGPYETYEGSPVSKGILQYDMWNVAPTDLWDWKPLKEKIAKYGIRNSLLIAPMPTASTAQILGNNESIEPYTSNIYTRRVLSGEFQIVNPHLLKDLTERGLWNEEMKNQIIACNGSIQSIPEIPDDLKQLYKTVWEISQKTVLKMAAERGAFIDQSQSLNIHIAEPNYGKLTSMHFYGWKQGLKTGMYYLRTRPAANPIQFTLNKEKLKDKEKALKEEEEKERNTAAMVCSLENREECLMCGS
T2 sequence (P11157 1-390 Y177F): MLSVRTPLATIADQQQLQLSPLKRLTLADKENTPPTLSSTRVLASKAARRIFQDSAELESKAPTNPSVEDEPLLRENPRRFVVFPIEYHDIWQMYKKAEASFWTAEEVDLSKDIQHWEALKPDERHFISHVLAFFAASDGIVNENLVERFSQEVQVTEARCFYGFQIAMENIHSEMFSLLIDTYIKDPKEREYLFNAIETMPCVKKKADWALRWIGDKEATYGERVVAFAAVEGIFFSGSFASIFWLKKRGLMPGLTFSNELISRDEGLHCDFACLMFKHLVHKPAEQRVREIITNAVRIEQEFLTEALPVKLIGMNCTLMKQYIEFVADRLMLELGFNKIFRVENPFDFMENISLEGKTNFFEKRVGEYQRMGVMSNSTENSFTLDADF

mouse R1 = target: T3, mouse R1 (Mus musculus, UniProt P07742); settings: cited from earlier work
T3 construct: made in house; host or cells: R1: Hi5 or Sf9 insect cells (baculovirus); R2: E. coli
T3 sequence (P07742 1-792): T2 sequence (P07742 1-792)

E. coli RR = target: T4, E. coli RR (Escherichia coli, UniProt P00452); settings: cited from earlier work
T4 sequence (P00452 whole entry, looked up): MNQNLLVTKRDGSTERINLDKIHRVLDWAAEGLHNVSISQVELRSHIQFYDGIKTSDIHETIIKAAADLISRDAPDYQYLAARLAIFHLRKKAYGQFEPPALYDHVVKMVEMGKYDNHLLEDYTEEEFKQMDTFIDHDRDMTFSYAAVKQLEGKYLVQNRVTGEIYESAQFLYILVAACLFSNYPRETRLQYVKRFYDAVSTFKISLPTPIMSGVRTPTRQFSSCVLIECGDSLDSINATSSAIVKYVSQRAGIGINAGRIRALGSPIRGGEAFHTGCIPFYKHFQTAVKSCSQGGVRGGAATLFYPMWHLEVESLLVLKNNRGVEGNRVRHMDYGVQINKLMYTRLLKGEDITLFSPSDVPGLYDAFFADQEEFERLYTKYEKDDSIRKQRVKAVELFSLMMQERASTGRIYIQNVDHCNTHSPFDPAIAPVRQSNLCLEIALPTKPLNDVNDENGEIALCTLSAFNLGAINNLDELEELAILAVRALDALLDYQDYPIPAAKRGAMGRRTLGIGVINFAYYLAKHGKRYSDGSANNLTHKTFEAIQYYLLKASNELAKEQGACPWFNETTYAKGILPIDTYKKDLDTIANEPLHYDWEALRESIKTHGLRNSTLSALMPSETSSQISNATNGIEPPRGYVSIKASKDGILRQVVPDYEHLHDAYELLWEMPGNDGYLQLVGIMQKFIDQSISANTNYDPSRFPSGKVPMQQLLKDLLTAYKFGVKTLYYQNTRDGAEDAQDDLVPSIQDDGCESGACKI

[3] = target: T1, mammalian ribonucleotide reductase; settings: cited from earlier work

## Ac-FTLAADF [Ac-FTLAADF]
[1]
  Fold decrease in RI relative to N-AcFTLDADF: > 30 fold
  % RI (relative inhibitory potency, (IC50 AcFTLDADF)/(IC50 peptide analog)): 2.9 ± 0.4%

## Ac-NSFTLDADF
[1]
  IC50: 9 to 15 µM

## Ac-FTLDAEF [Ac-FTLDAEF]
[1]
  Fold decrease in RI relative to N-AcFTLDADF: > 50 fold
  % RI (relative inhibitory potency, (IC50 AcFTLDADF)/(IC50 peptide analog)): 1.7 ± 0.15%

## Ac-FTLDADFAA
[1]
  % RI (relative inhibitory potency, (IC50 AcFTLDADF)/(IC50 peptide analog)): 2.1%

## Ac-FTADADF [Ac-FTADADF]
[1]
  % RI (relative inhibitory potency, (IC50 AcFTLDADF)/(IC50 peptide analog)): 4.9 ± 0.60%

## Nc1ncnc2c1ncn2[C@H]1C[C@H](O)[C@@H](COP(=O)(O)OP(=O)(O)OP(=O)(O)O)O1 [dATP]
[2]
  IC50: 20 µM

## Ac-FLDADF [Ac-F-LDADF]
[1]
  IC50: 412 µM

## Ac-FTFDADF [Ac-FTFDADF]
[1]
  % RI (relative inhibitory potency, (IC50 AcFTLDADF)/(IC50 peptide analog)): 18 ± 4.2%

## Ac-FALDADF [Ac-FALDADF, Acetyl-Phe-Ala-Leu-Asp-Ala-Asp-Phe]
[1]
  IC50: 35 to 40 µM

## Ac-SFTLDADF
Mouse R1
  Affinity for mR1 compared with AcFTLDADF: same affinity
[1]
  % RI (relative inhibitory potency, (IC50 AcFTLDADF)/(IC50 peptide analog)): 100%

## Ac-FTLDADL [Ac-FTLDADL]
[1]
  Fold decrease in RI relative to N-AcFTLDADF: over 40 fold
  % RI (relative inhibitory potency, (IC50 AcFTLDADF)/(IC50 peptide analog)): 3% and < 3%

## DDLSNFQL [reference compound]
E. coli RR
  Inhibition of E. coli RR: inhibits eRR
[3]
  Inhibition of mRR: does not inhibit mRR

## SFTLDADF
[1]
  IC50: 80 µM

## Acetyl-(p-amino-Phe)-Thr-Leu-Asp-Ala-Asp-Phe [Ac-F(4'-NH2)TLDADF]
[1]
  Fold decrease in RI relative to N-AcFTLDADF: five to ten
  % RI (relative inhibitory potency, (IC50 AcFTLDADF)/(IC50 peptide analog)): 10%
